# Laboratory results: patent US20250034170A1, “SMALL MOLECULE MODULATORS OF GLUCOCEREBROSIDASE ACTIVITY AND USES THEREOF” (Vanqua Bio, Inc., priority 2021, published 2025)
# Target: T1, GCase (Homo sapiens, UniProt P04062)
# T1 construct: endogenous in cells; host or cells: HeLa cells
# T1 sequence (P04062 40-536): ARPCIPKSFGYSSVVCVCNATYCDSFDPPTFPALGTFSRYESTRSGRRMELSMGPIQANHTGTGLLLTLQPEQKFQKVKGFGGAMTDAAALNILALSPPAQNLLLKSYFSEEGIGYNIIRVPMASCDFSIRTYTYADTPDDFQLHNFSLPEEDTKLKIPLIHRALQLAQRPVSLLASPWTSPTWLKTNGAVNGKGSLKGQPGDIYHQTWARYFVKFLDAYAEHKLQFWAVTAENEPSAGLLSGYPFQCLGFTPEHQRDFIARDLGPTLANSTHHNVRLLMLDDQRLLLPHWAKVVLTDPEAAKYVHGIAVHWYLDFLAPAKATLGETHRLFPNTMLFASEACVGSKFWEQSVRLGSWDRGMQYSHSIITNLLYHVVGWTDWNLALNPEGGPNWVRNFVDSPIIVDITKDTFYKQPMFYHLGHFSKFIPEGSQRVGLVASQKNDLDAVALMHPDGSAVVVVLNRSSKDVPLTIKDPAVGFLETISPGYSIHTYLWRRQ
# Assay: activation of GCase in a live cell PFB assay in HELA cells
# Assay type: cell-based
# Conditions: activation of GCase, EC50 ranges
# Experimental: Exemplary compounds were evaluated for activation of GCase in a live cell PFB assay in HELA cells (essentially as described in Ysselstein et al., “LRRK2 kinase activity regulates lysosomal glucocerebrosidase in neurons derived from Parkinson's disease patients” Nature Communications (2019) 10:5570). […] EC50 ranges: A: <10 μM; B: >10-50 μM; C: >50-100 μM; D: >100 μM.
row,SMILES,EC50
1,"FC(F)Cn1ncc2ncc(N3CC4(CCCN(c5ccc(C(F)F)nc5)C4)C3)nc21 [Compound 157, 2-[1-(2,2-difluoroethyl)-1H-pyrazolo[3,4-b]pyrazin-6-yl]-6-[6-(difluoromethyl)pyridin-3-yl]-2,6-diazaspiro[3.5]nonane]",> 100 µM
2,"FC(F)c1ccc(N2CCCC3(C2)CN(c2cnc4cnn(CC(F)(F)F)c4n2)C3)cn1 [Compound 158, 6-[6-(difluoromethyl)pyridin-3-yl]-2-[1-(2,2,2-trifluoroethyl)-1H-pyrazolo[3,4-b]pyrazin-6-yl]-2,6-diazaspiro[3.5]nonane]",> 100 µM
3,"Cc1nn(CC(F)F)c2nc(N3CC4(CCCN(c5ccc(C(F)F)nc5)C4)C3)cnc12 [Compound 159, 2-[1-(2,2-difluoroethyl)-3-methyl-1H-pyrazolo[3,4-b]pyrazin-6-yl]-6-[6-(difluoromethyl)pyridin-3-yl]-2,6-diazaspiro[3.5]nonane]",> 100 µM
4,"FC(F)c1ccc(N2CCCC3(C2)CN(c2cncc(-c4nncs4)n2)C3)cn1 [Compound 160, 6-[6-(difluoromethyl)pyridin-3-yl]-2-[6-(1,3,4-thiadiazol-2-yl)pyrazin-2-yl]-2,6-diazaspiro[3.5]nonane]",10 to 50 µM
5,"Cc1nn(CC(F)F)c2nc(N3CCC4(CCN(c5cc(C(F)F)ccn5)CC4)C3)cnc12 [Compound 163, 2-[1-(2,2-difluoroethyl)-3-methyl-1H-pyrazolo[3,4-b]pyrazin-6-yl]-8-[4-(difluoromethyl)pyridin-2-yl]-2,8-diazaspiro[4.5]decane]",< 10 µM
6,"FC(F)c1ccnc(N2CCC3(CC2)CCN(c2cncc(-c4nncs4)n2)C3)c1 [Compound 164, 8-[4-(difluoromethyl)pyridin-2-yl]-2-[6-(1,3,4-thiadiazol-2-yl)pyrazin-2-yl]-2,8-diazaspiro[4.5]decane]",10 to 50 µM
7,"O=C1N(c2cc(C(F)F)ccn2)CCC12CCN(c1cnc3cnn(CC(F)F)c3n1)CC2 [Compound 165, 8-[1-(2,2-difluoroethyl)-1H-pyrazolo[3,4-b]pyrazin-6-yl]-2-[4-(difluoromethyl)pyridin-2-yl]-2,8-diazaspiro[4.5]decan-1-one]",< 10 µM
8,"O=C1N(c2cc(C(F)F)ccn2)CCC12CCN(c1cnc3cnn(CC(F)(F)F)c3n1)CC2 [Compound 166, 2-[4-(difluoromethyl)pyridin-2-yl]-8-[1-(2,2,2-trifluoroethyl)-1H-pyrazolo[3,4-b]pyrazin-6-yl]-2,8-diazaspiro[4.5]decan-1-one]",< 10 µM
9,"Cc1nn(CC(F)F)c2nc(N3CCC4(CC3)CCN(c3cc(C(F)F)ccn3)C4=O)cnc12 [Compound 167, 8-[1-(2,2-difluoroethyl)-3-methyl-1H-pyrazolo[3,4-b]pyrazin-6-yl]-2-[4-(difluoromethyl)pyridin-2-yl]-2,8-diazaspiro[4.5]decan-1-one]",10 to 50 µM
10,"Cc1nn(CC(F)F)c2nc(N3CCC4(CC3)CCN(c3cc(C(F)(F)F)ccn3)C4=O)cnc12 [Compound 168, 8-[1-(2,2-difluoroethyl)-3-methyl-1H-pyrazolo[3,4-b]pyrazin-6-yl]-2-[4-(trifluoromethyl)pyridin-2-yl]-2,8-diazaspiro[4.5]decan-1-one]",< 10 µM
11,"O=C1N(c2cc(C(F)(F)F)ccn2)CCC12CCN(c1cncc(-c3nncs3)n1)CC2 [Compound 169, 8-[6-(1,3,4-thiadiazol-2-yl)pyrazin-2-yl]-2-[4-(trifluoromethyl)pyridin-2-yl]-2,8-diazaspiro[4.5]decan-1-one]",< 10 µM
12,"FC(F)Cn1ncc2ncc(N3CC4(CN(c5cc(C(F)(F)F)ccn5)CCO4)C3)nc21 [Compound 171, 2-[1-(2,2-difluoroethyl)-1H-pyrazolo[3,4-b]pyrazin-6-yl]-8-[4-(trifluoromethyl)pyridin-2-yl]-5-oxa-2,8-diazaspiro[3.5]nonane]",10 to 50 µM
13,"FC(F)Cn1ncc2ncc(N3CC4(CN(c5ccc(C(F)(F)F)cn5)CCO4)C3)nc21 [Compound 172, 2-[1-(2,2-difluoroethyl)-1H-pyrazolo[3,4-b]pyrazin-6-yl]-8-[5-(trifluoromethyl)pyridin-2-yl]-5-oxa-2,8-diazaspiro[3.5]nonane]",10 to 50 µM
14,"FC(F)Cn1ncc2ncc(N3CC4(CN(c5ccc(C(F)(F)F)nc5)CCO4)C3)nc21 [Compound 173, 2-[1-(2,2-difluoroethyl)-1H-pyrazolo[3,4-b]pyrazin-6-yl]-8-[6-(trifluoromethyl)pyridin-3-yl]-5-oxa-2,8-diazaspiro[3.5]nonane]",10 to 50 µM
15,"FC(F)Cn1ncc2ncc(N3CCC4(CN(c5cc(C(F)(F)F)ccn5)CCO4)C3)nc21 (centres unmarked) [Compound 174, 2-[1-(2,2-difluoroethyl)-1H-pyrazolo[3,4-b]pyrazin-6-yl]-9-[4-(trifluoromethyl)pyridin-2-yl]-6-oxa-2,9-diazaspiro[4.5]decane]",50 to 100 µM
16,"FC(F)Cn1ncc2ncc(N3CCC4(CN(c5ccc(C(F)(F)F)cn5)CCO4)C3)nc21 (centres unmarked) [Compound 175, 2-[1-(2,2-difluoroethyl)-1H-pyrazolo[3,4-b]pyrazin-6-yl]-9-[5-(trifluoromethyl)pyridin-2-yl]-6-oxa-2,9-diazaspiro[4.5]decane]",50 to 100 µM
17,"FC(F)Cn1ncc2ncc(N3CCC4(CN(c5ccc(C(F)(F)F)nc5)CCO4)C3)nc21 (centres unmarked) [Compound 176, 2-[1-(2,2-difluoroethyl)-1H-pyrazolo[3,4-b]pyrazin-6-yl]-9-[6-(trifluoromethyl)pyridin-3-yl]-6-oxa-2,9-diazaspiro[4.5]decane]",> 100 µM
18,"FC(F)(F)Cn1ncc2ncc(N3CCC4(CCN(c5cc(C(F)(F)F)ccn5)C4)CC3)nc21 [Compound 177, 8-[1-(2,2,2-trifluoroethyl)-1H-pyrazolo[3,4-b]pyrazin-6-yl]-2-[4-(trifluoromethyl)pyridin-2-yl]-2,8-diazaspiro[4.5]decane]",50 to 100 µM

# Second part, the molecule after the results:
row,EC50,SMILES
1,< 10 µM,"FC(F)Cn1ncc2ncc(N3CCC4(CCN(c5cccc(C(F)(F)F)n5)CC4)C3)nc21 [Compound 149, 2-[1-(2,2-difluoroethyl)-1H-pyrazolo[3,4-b]pyrazin-6-yl]-8-[6-(trifluoromethyl)pyridin-2-yl]-2,8-diazaspiro[4.5]decane]"
2,10 to 50 µM,"FC(F)Cn1ncc2ncc(N3CCC4(CCN(c5ccc(C(F)(F)F)cn5)CC4)C3)nc21 [Compound 150, 2-[1-(2,2-difluoroethyl)-1H-pyrazolo[3,4-b]pyrazin-6-yl]-8-[5-(trifluoromethyl)pyridin-2-yl]-2,8-diazaspiro[4.5]decane]"
3,10 to 50 µM,"FC(F)Cn1ncc2ncc(N3CCC4(CCN(c5ncccc5C(F)(F)F)CC4)C3)nc21 [Compound 151, 2-[1-(2,2-difluoroethyl)-1H-pyrazolo[3,4-b]pyrazin-6-yl]-8-[3-(trifluoromethyl)pyridin-2-yl]-2,8-diazaspiro[4.5]decane]"
4,< 10 µM,"FC(F)Cn1ncc2ncc(N3CCC4(CCN(c5ccc(C(F)(F)F)nc5)CC4)C3)nc21 [Compound 152, 2-[1-(2,2-difluoroethyl)-1H-pyrazolo[3,4-b]pyrazin-6-yl]-8-[6-(trifluoromethyl)pyridin-3-yl]-2,8-diazaspiro[4.5]decane]"
5,< 10 µM,"FC(F)Cn1ncc2ncc(N3CCC4(CCN(c5cncc(C(F)(F)F)c5)CC4)C3)nc21 [Compound 153, 2-[1-(2,2-difluoroethyl)-1H-pyrazolo[3,4-b]pyrazin-6-yl]-8-[5-(trifluoromethyl)pyridin-3-yl]-2,8-diazaspiro[4.5]decane]"
6,< 10 µM,"FC(F)Cn1ncc2ncc(N3CCC4(CCN(c5ccnc(C(F)(F)F)c5)C4)CC3)nc21 [Compound 154, 8-[1-(2,2-difluoroethyl)-1H-pyrazolo[3,4-b]pyrazin-6-yl]-2-[2-(trifluoromethyl)pyridin-4-yl]-2,8-diazaspiro[4.5]decane]"
7,< 10 µM,"FC(F)Cn1ncc2ncc(N3CCC4(CCN(c5ccnc(C(F)(F)F)c5)CC4)C3)nc21 [Compound 155, 2-[1-(2,2-difluoroethyl)-1H-pyrazolo[3,4-b]pyrazin-6-yl]-8-[2-(trifluoromethyl)pyridin-4-yl]-2,8-diazaspiro[4.5]decane]"
8,< 10 µM,"FC(F)Cn1ncc2ncc(N3CCC4(CC3)CCN(c3ccncc3C(F)(F)F)C4)nc21 [Compound 156, 8-[1-(2,2-difluoroethyl)-1H-pyrazolo[3,4-b]pyrazin-6-yl]-2-[3-(trifluoromethyl)pyridin-4-yl]-2,8-diazaspiro[4.5]decane]"
9,10 to 50 µM,"FC(F)Cn1ncc2ncc(N3CCC4(CCN(c5cc(C(F)F)ccn5)CC4)C3)nc21 [Compound 161, 2-[1-(2,2-difluoroethyl)-1H-pyrazolo[3,4-b]pyrazin-6-yl]-8-[4-(difluoromethyl)pyridin-2-yl]-2,8-diazaspiro[4.5]decane]"
10,< 10 µM,"FC(F)c1ccnc(N2CCC3(CC2)CCN(c2cnc4cnn(CC(F)(F)F)c4n2)C3)c1 [Compound 162, 8-[4-(difluoromethyl)pyridin-2-yl]-2-[1-(2,2,2-trifluoroethyl)-1H-pyrazolo[3,4-b]pyrazin-6-yl]-2,8-diazaspiro[4.5]decane]"
11,10 to 50 µM,"FC(F)Cn1ncc2ncc(N3CCC4(CCN(c5cccnc5C(F)(F)F)CC4)C3)nc21 [Compound 170, 2-[1-(2,2-difluoroethyl)-1H-pyrazolo[3,4-b]pyrazin-6-yl]-8-[2-(trifluoromethyl)pyridin-3-yl]-2,8-diazaspiro[4.5]decane]"
